Results: patent US10900040B2, “Methods of reducing or preventing intimal damage caused by mechanical stimulation of endothelial cells” (University of Maryland, Baltimore, priority 2015, dated 2021)

Columns and labels:
TRPM4 = test: Reduction of TRPM4 expression by antisense oligodeoxynucleotides; type: in vivo; conditions: TRPM4-AS1 and TRPM4-AS2 used together; phosphorothioated
Text: (§1) In certain embodiments of the invention, antagonists of TRPM4 are employed in methods and/or compositions. Antagonists may be of any kind, but in particular embodiments the antagonists are proteins, nucleic acids, small molecules, and so forth. In specific cases, the TRPM4 antagonists comprise flufenamic acid and/or 9-phenanthrol and/or spermine and/or decavanadate and/or BTP2 and/or anti-TRPM4 antibodies. In specific cases, the TRPM4 nucleic acid antagonists comprises RNAi, such as siRNA or shRNA or antisense oligodeoxynucleotides (AS-ODN).

spinal cord injury = test: Outcome from spinal cord injury after antisense oligodeoxynucleotides; type: in vivo; conditions: TRPM4-AS1 and TRPM4-AS2 used together; phosphorothioated
Text: as §1

SUR1-TRPM4 channel = molecular target: T1, SUR1-TRPM4 channel (Homo sapiens, UniProt Q09428+Q8TD43); test: Patch clamp recordings of SUR1-TRPM4 channel currents in mechanically stimulated endothelial cells; type: cell-based; conditions: endothelial cells after mechanical stimulation; currents carried by Cs+ ions
T1 construct: endogenous in cells
T1 sequence (Q09428 whole entry): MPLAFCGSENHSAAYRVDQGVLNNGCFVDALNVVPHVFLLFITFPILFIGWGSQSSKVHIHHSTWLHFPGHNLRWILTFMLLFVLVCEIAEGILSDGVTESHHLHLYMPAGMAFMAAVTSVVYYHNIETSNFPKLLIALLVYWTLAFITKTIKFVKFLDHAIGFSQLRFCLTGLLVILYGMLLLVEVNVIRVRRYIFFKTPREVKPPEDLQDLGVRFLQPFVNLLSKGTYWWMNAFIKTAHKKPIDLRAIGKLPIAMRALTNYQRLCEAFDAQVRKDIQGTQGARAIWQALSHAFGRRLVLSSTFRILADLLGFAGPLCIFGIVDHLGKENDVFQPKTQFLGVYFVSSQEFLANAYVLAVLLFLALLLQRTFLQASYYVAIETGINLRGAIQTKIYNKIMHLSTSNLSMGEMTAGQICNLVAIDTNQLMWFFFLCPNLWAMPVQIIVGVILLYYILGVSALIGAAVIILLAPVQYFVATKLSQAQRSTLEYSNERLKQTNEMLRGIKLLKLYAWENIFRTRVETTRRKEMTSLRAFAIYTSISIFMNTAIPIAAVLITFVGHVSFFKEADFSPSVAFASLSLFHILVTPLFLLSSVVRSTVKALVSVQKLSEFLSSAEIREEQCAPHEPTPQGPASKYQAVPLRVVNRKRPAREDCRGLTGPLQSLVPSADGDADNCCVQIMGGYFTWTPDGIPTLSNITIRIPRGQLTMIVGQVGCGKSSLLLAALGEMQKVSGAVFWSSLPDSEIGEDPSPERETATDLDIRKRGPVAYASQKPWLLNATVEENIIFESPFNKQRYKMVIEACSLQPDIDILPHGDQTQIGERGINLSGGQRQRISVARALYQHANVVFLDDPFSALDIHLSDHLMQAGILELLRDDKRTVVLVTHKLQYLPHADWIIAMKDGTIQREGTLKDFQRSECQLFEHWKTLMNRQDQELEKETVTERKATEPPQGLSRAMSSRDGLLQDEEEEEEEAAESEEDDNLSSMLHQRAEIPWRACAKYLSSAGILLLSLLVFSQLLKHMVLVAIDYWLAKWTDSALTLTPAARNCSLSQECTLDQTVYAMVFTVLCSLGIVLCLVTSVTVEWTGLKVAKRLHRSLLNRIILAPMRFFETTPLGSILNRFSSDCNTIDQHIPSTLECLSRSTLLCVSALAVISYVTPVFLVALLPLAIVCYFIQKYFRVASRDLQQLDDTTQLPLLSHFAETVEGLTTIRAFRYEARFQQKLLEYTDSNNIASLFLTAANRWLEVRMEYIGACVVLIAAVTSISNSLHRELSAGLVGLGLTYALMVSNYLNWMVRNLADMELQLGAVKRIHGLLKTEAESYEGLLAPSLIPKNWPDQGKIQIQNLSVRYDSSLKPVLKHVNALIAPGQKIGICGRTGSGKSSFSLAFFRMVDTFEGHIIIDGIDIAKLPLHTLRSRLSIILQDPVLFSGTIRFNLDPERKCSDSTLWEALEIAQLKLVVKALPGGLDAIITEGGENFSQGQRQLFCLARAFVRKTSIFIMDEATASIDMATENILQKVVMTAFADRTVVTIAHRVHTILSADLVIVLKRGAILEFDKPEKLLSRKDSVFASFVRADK
T1 sequence (Q8TD43 whole entry): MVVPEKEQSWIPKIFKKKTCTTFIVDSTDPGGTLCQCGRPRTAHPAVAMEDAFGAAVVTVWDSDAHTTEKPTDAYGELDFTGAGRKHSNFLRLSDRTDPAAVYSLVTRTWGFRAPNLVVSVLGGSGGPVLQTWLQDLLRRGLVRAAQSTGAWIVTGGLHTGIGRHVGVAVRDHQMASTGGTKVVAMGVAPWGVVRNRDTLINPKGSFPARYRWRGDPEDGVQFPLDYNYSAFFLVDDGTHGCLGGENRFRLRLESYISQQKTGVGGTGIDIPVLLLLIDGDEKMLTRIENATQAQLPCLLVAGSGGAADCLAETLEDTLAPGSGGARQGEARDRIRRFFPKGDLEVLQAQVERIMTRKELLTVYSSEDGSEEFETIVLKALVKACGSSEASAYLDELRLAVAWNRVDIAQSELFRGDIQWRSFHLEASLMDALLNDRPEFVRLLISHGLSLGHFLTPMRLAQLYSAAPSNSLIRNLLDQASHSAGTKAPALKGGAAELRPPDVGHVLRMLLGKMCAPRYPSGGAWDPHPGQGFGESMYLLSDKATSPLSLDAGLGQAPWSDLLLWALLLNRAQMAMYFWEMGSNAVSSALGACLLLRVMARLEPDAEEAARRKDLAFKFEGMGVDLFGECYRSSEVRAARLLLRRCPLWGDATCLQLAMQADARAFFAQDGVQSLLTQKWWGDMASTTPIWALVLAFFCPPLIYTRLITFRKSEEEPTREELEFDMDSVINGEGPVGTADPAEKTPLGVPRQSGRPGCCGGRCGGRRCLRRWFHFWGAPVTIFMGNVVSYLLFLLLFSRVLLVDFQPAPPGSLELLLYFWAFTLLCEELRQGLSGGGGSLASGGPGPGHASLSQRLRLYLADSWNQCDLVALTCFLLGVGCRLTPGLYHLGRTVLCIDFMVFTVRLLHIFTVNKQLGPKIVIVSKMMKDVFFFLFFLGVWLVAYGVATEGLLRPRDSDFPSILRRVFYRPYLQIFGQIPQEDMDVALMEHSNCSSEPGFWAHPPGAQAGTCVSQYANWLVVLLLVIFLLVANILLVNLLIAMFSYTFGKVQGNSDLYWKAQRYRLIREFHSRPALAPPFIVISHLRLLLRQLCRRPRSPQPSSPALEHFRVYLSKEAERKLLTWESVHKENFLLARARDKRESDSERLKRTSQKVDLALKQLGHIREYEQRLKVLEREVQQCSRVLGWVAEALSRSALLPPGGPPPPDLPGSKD
Procedure: FIGS. 2A and 2B. Mechanical stimulation of endothelial cells causes upregulation of functional SUR1-TRPM4 channels. Endothelial cells were cultured in dishes with flexible bottoms and the cells were mechanically stimulated by applying puffs of air to the underside of the dishes. […] FIG. 2B: Amplitudes of SUR1-TRPM4 channel currents measured at −50 mV under control conditions before mechanical activation (CTR), following mechanical activation (STR), following mechanical activation in the presence of the NF-kappaB inhibitor, pyrrolidine dithiocarbamate (PDTC) as negative control, and without mechanical activation, in the presence of tumor necrosis factor alpha (TNFalpha), as positive control.
Endothelial cells were cultured in dishes with flexible bottoms and the cells were mechanically stimulated by applying puffs of air to the underside of the dishes. […] NFκB activation caused robust transcriptional upregulation of the SUR1-TRPM4 channels 6 hours later (FIGS. 1B and 1C). […] The critical role of the mechanosensitive transcription factor, NF-κB, in Sur1-Trpm4 channel upregulation was confirmed using the NF-κB inhibitor, pyrrolidine dithiocarbamate (PDTC) as negative control, and the NF-κB activator, tumor necrosis factor α (TNFα), as positive control (FIG. 2B).

Row | Compound | reducing TRPM4 expression (TRPM4) | improving outcome from spinal cord injury (spinal cord injury) | effect on SUR1-TRPM4 channel currents (patch clamp) (SUR1-TRPM4 channel)
1 | 5′-CTGCGATAGCACTCGCCAAA-3′ (chemistry not given here) [TRPM4-AS2, antisense oligodeoxynucleotide against TRPM4] | highly effective | highly effective | 
2 | 5′-GTGTGCATCGCTGTCCCACA-3′ (chemistry not given here) [TRPM4-AS1, antisense oligodeoxynucleotide against TRPM4] | highly effective | highly effective | 
3 | CNC[C@H](O)[C@@H](O)[C@H](O)[C@H](O)CO [N-methyl-D-glucamine] |  |  | channel blockade
